Source: PubChem BioAssay (NCI)
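Exposure lasted 48 hours, with cells grown in 96-well plates and compounds tested at five concentrations. GI50 is the concentration that inhibits growth by half. TGI: concentration producing complete growth inhibition.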

Tests used:
Assay in all cases: NCI anticancer screen, dose series, 48 h
[1] = system: SF-268 CNS
[2] = system: EKVX NSCLC
[3] = system: MALME-3M melanoma
[4] = system: RXF 393 renal
[5] = system: DU-145 prostate
[6] = system: OVCAR-8 ovarian
[7] = system: SR leukemia
[8] = system: PC-3 prostate
[9] = system: HCC-2998 colon
[10] = system: ACHN renal
[11] = system: CCRF-CEM leukemia
[12] = system: SN12C renal
[13] = system: MOLT-4 leukemia
[14] = system: HL-60(TB) leukemia
[15] = system: HOP-92 NSCLC
[16] = system: SK-OV-3 ovarian
[17] = system: HCT-15 colon
[18] = system: HOP-62 NSCLC
[19] = system: A549 NSCLC
[20] = system: MDA-MB-435
[21] = system: SNB-19 CNS
[22] = system: NCI/ADR-RES ovarian
[23] = system: RPMI-8226 leukemia
[24] = system: 786-0 renal
[25] = system: U251 CNS
[26] = system: KM12 colon
[27] = system: M14 melanoma
[28] = system: HT29 colon
[29] = system: SK-MEL-28 melanoma
[30] = system: OVCAR-3 ovarian
[31] = system: HS 578T breast
[32] = system: UACC-62 melanoma
[33] = system: MCF7 breast
[34] = system: CAKI-1 renal
[35] = system: OVCAR-4 ovarian
[36] = system: SF-539 CNS
[37] = system: SF-295 CNS
[38] = system: SNB-75 CNS
[39] = system: MDA-MB-231 breast
[40] = system: K-562 leukemia
[41] = system: SK-MEL-2 melanoma
[42] = system: UO-31 renal
[43] = system: NCI-H460 lung
[44] = system: OVCAR-5 ovarian
[45] = system: T-47D breast
[46] = system: COLO 205 colon
[47] = system: MDA-MB-468 breast
[48] = system: TK-10 renal
[49] = system: HCT-116 colon
[50] = system: A498 renal
[51] = system: NCI-H226 lung
[52] = system: SW-620 colon
[53] = system: NCI-H522 lung
[54] = system: UACC-257 melanoma
[55] = system: SK-MEL-5 melanoma
[56] = system: IGROV1 ovarian
[57] = system: NCI-H23 lung
[58] = system: LOX IMVI melanoma
[59] = system: BT-549 breast

## C/C(=N\N=C1/C(=O)Nc2ccc(Cl)cc21)c1ccc2c(c1)Nc1ccccc1S2
[1]
  GI50: 8.19 µM
  TGI: 26.5 µM
[2]
  GI50: 4.68 µM
  TGI: 22.9 µM
[3]
  GI50: 7.44 µM
  TGI: 21.5 µM
[4]
  GI50: 5.05 µM
  TGI: 19 µM
[5]
  GI50: 4.64 µM
  TGI: 18 µM
[6]
  GI50: 4.2 µM
  TGI: 17.9 µM
[7]
  GI50: 4.4 µM
  TGI: 56.8 µM
[8]
  GI50: 3.14 µM
  TGI: 16.3 µM
[9]
  GI50: 7.54 µM
  TGI: 22.5 µM
[10]
  GI50: 3.55 µM
  TGI: 14.1 µM
[11]
  GI50: 3.42 µM
  TGI: 98.5 µM
[12]
  GI50: 4.47 µM
  TGI: 16.8 µM
[13]
  GI50: 2.71 µM
  TGI: 8.28 µM
[14]
  GI50: 6.21 µM
  TGI: > 100 µM
[15]
  GI50: 2.92 µM
  TGI: 11.3 µM
[16]
  GI50: 11.9 µM
  TGI: 30.7 µM
[17]
  GI50: 6.61 µM
  TGI: 24 µM
[18]
  GI50: 12.5 µM
  TGI: 27.8 µM
[19]
  GI50: 4.21 µM
  TGI: 17.8 µM
[20]
  GI50: 3.27 µM
  TGI: 15.5 µM
[21]
  GI50: 11.9 µM
  TGI: 33.1 µM
[22]
  GI50: 4.74 µM
  TGI: 24.6 µM
[23]
  GI50: 5.86 µM
  TGI: 99.6 µM
[24]
  GI50: 2.4 µM
  TGI: 5.86 µM
[25]
  GI50: 5.62 µM
  TGI: 18.4 µM
[26]
  GI50: 3.51 µM
  TGI: 14.1 µM
[27]
  GI50: 7.35 µM
  TGI: 23.3 µM
[28]
  GI50: 4.54 µM
  TGI: 17.6 µM
[29]
  GI50: 6.23 µM
  TGI: 22.8 µM
[30]
  GI50: 10.2 µM
  TGI: 23.4 µM
[31]
  GI50: 6.86 µM
  TGI: 41.1 µM
[32]
  GI50: 4.2 µM
  TGI: 17.1 µM
[33]
  GI50: 3.33 µM
  TGI: 13.5 µM
[34]
  GI50: 4.42 µM
  TGI: 17.9 µM
[35]
  GI50: 4.67 µM
  TGI: 22.5 µM
[36]
  GI50: 6.83 µM
  TGI: 19.8 µM
[37]
  GI50: 4.08 µM
  TGI: 17 µM
[38]
  GI50: 4.28 µM
  TGI: 19.4 µM
[39]
  GI50: 8.23 µM
  TGI: 21.9 µM
[40]
  GI50: 4.14 µM
  TGI: > 100 µM
[41]
  GI50: 6.77 µM
  TGI: 20.8 µM
[42]
  GI50: 4.05 µM
  TGI: 19.6 µM
[43]
  GI50: 3.17 µM
  TGI: 10.3 µM
[44]
  GI50: 10.1 µM
  TGI: 26.2 µM
[45]
  GI50: 2540 nM
  TGI: 12.8 µM
[46]
  GI50: 4.84 µM
  TGI: 17.2 µM
[47]
  GI50: 1800 nM
  TGI: 7.31 µM
[48]
  GI50: 7.07 µM
  TGI: 23.7 µM
[49]
  GI50: 4.6 µM
  TGI: 19 µM
[50]
  GI50: 5.89 µM
  TGI: 18.7 µM
[51]
  GI50: 3.49 µM
  TGI: 19.7 µM
[52]
  GI50: 5.56 µM
  TGI: 20.1 µM
[53]
  GI50: 3.22 µM
  TGI: 15.3 µM
[54]
  GI50: 4.07 µM
  TGI: 18.1 µM
[55]
  GI50: 3.8 µM
  TGI: 14.4 µM
[56]
  GI50: 5.62 µM
  TGI: 23.1 µM
[57]
  GI50: 7.3 µM
  TGI: 21.7 µM
[58]
  GI50: 5.77 µM
  TGI: 18.7 µM
[59]
  GI50: 3.47 µM
  TGI: 12.3 µM

## CS(=O)(=O)Nc1cncc(-c2ccc3ncnc(NCc4ccccc4)c3c2)c1
[1]
  GI50: 10.5 µM
  TGI: 36.7 µM
[2]
  GI50: 12.9 µM
  TGI: 31.4 µM
[3]
  GI50: 4.17 µM
  TGI: 21.5 µM
[4]
  GI50: 10.8 µM
  TGI: 26.6 µM
[5]
  GI50: 22.2 µM
  TGI: > 100 µM
[6]
  GI50: 19.1 µM
  TGI: 79 µM
[7]
  GI50: 8.84 µM
  TGI: 40.3 µM
[8]
  GI50: 14.6 µM
  TGI: 38.3 µM
[9]
  GI50: 11.5 µM
  TGI: 23.8 µM
[10]
  GI50: 20.2 µM
  TGI: > 100 µM
[11]
  GI50: 4.58 µM
  TGI: 33.3 µM
[12]
  GI50: 12.4 µM
  TGI: 39.1 µM
[13]
  GI50: 5.53 µM
  TGI: 74 µM
[14]
  GI50: 10.3 µM
  TGI: 40.9 µM
[15]
  GI50: 3.92 µM
  TGI: 20.1 µM
[16]
  GI50: 15.5 µM
  TGI: 34.9 µM
[17]
  GI50: 23.3 µM
  TGI: 98.3 µM
[18]
  GI50: 12.2 µM
  TGI: 35 µM
[19]
  GI50: 15.5 µM
  TGI: 31.7 µM
[20]
  GI50: 10.8 µM
  TGI: 27.4 µM
[21]
  GI50: 9.74 µM
  TGI: 26.2 µM
[22]
  GI50: > 100 µM
  TGI: > 100 µM
[23]
  GI50: 15.1 µM
  TGI: 38 µM
[24]
  GI50: 15 µM
  TGI: 37.3 µM
[25]
  GI50: 7.54 µM
  TGI: 41 µM
[26]
  GI50: 14.2 µM
  TGI: 30 µM
[27]
  GI50: 14.6 µM
  TGI: 45.7 µM
[28]
  GI50: 14.4 µM
  TGI: 30 µM
[29]
  GI50: 11 µM
  TGI: 38.3 µM
[30]
  GI50: 5.93 µM
  TGI: 21.6 µM
[31]
  GI50: 3.36 µM
  TGI: 20.5 µM
[32]
  GI50: 7.19 µM
  TGI: 20.4 µM
[33]
  GI50: 4.56 µM
  TGI: 24.6 µM
[34]
  GI50: 12.8 µM
  TGI: 30.2 µM
[35]
  GI50: 12.2 µM
  TGI: 50.2 µM
[36]
  GI50: 11.9 µM
  TGI: 27.6 µM
[37]
  GI50: 16.4 µM
  TGI: 39.4 µM
[38]
  GI50: 6.7 µM
  TGI: 32.8 µM
[39]
  GI50: 12.3 µM
  TGI: 27 µM
[40]
  GI50: 18.7 µM
  TGI: > 100 µM
[41]
  GI50: 5.75 µM
  TGI: 19.3 µM
[42]
  GI50: 12.1 µM
  TGI: 36.5 µM
[43]
  GI50: 25.6 µM
  TGI: 94.3 µM
[44]
  GI50: 12.3 µM
  TGI: 32.9 µM
[45]
  GI50: 2850 nM
  TGI: 12.7 µM
[46]
  GI50: 13.2 µM
  TGI: 26.6 µM
[47]
  GI50: 2140 nM
  TGI: 8.25 µM
[48]
  GI50: 10.7 µM
  TGI: 29.9 µM
[49]
  GI50: 13.9 µM
  TGI: 29.1 µM
[50]
  GI50: 13.1 µM
  TGI: 36.1 µM
[51]
  GI50: 14 µM
  TGI: 37.1 µM
[52]
  GI50: 17.1 µM
  TGI: 41.6 µM
[53]
  GI50: 4.21 µM
  TGI: 18.9 µM
[54]
  GI50: 13.8 µM
  TGI: 51.6 µM
[55]
  GI50: 12.9 µM
  TGI: 25.6 µM
[56]
  GI50: 7.73 µM
  TGI: 22.9 µM
[57]
  GI50: 12.7 µM
  TGI: 28.1 µM
[58]
  GI50: 11.9 µM
  TGI: 24.2 µM
[59]
  GI50: 3.63 µM
  TGI: 21.5 µM
